# Entries after “also recorded” stand apart in the source; their conditions may differ. Where two headings read alike, the source gives them in different places.
# What was measured:
# [1] = test system: hiPSO-derived IECs; experiment: Cell viability of dispersed hiPSO-derived IECs (CellTiter-Glo 3D); details: for effect of kinase inhibitor on dose-dependent cytotoxicity induced by YC-1: 10 µM inhibitor with 0-30 µM YC-1, 48 h, Fig. 6A-C; for toxicity against IECs (cell viability): indicated doses, dispersed hiPSO-derived IECs, Fig. 5A, B; for IEC-selective dose-dependent cytotoxicity: dose-dependent analysis, dispersed IECs from hiPSOs and hPIOs versus Caco-2 cells, Fig. 4D
# [2] = test system: hiPSO-derived IECs
# [3] = test system: caspase-8, RIP1, caspase-3, PARP, XIAP in hiPSO-derived IECs; experiment: Western blot analysis of apoptotic proteins in hiPSO-derived IECs; format: cell-based, human; details: 0, 1, 10 µM, 14 h, Fig. 5D
# Procedure: After the preparation of lysis buffer [50 mM Tris-HCl (pH 8.0), 150 mM NaCl, 1% Triton X-100, 0.5% deoxycholate, 0.1% sodium dodecyl sulfate (SDS), and a protease inhibitor cocktail (Nacalai Tesque)], cell lysates were subjected to SDS-polyacrylamide gel electrophoresis and transferred onto a polyvinylidene difluoride membrane. The membrane was blocked with Blocking One (Nacalai Tesque) for 1 h at room temperature (RT), incubated overnight at 4 °C with primary antibodies against caspase-3 (1:1000), caspase-8 (1:1000), PARP (1:1000), RIP1 (1:1000), XIAP (1:100), and β-actin (1:200), and incubated with secondary antibodies for 1 h at RT. Chemiluminescent signals were determined using Fusion Solo S (Vilber). A pre-stained ladder protein marker (XL-Ladder Broad, APRO Science) that was not visible as a chemiluminescent signal was used to determine the position of molecular weights. Full-scan images were represented in the Supplementary Information.
# [4] = test system: CCND1 and VIL1 mRNA in hiPSO-derived IECs; experiment: qRT-PCR of mRNA levels in hiPSO-derived IECs; format: cell-based, human; details: 0, 1, 10 µM, 48 h, Fig. 5E
# Procedure: Total cellular RNA was extracted using RNeasy Mini Kit (Qiagen). Reverse transcription was performed using a high-capacity cDNA Reverse Transcription Kit (Thermo Fisher Scientific). The mRNA levels were measured by fluorescence real-time PCR on StepOnePlus (Thermo Fisher Scientific) using PrimeTime qPCR Probes (Integrated DNA Technologies). The 18S rRNA levels were used as an internal control to normalize the mRNA levels of each gene.
# [5] = test system: Caco-2 cells; experiment: Cell viability of Caco-2 cells (CellTiter-Glo 3D), counter-assay; format: cell-based, human; details: dose-dependent analysis, Fig. 4D
# [6] = test system: hPIO-derived IECs; experiment: Cell viability of dispersed hPIO-derived IECs (CellTiter-Glo 3D); details: 1 µM, 48 h, dispersed IECs of hPIOs, Fig. 4A
compound,measurement,setting,value
Oc1c2ccccc2c2c3c(cccc13)N=N2 [SP600125],effect of kinase inhibitor on dose-dependent cytotoxicity induced by YC-1,[1],almost no effect
"OCc1ccc(-c2nn(Cc3ccccc3)c3ccccc23)o1 [YC-1, 3-(5′-hydroxymethyl-2′-furyl)-1-benzyl indazole]",IEC-selective dose-dependent cytotoxicity,[2],identified
same,cytotoxicity against IECs,[2],significant cytotoxicity
same,anti-apoptotic protein XIAP level,[3],decreased
same,"cleavage of caspase-8, RIP1, caspase-3 and PARP",[3],dose-dependently induced the cleavage
same,CCND1 mRNA levels,[4],downregulated
same,VIL1 mRNA levels,[4],downregulated
same,cytotoxicity against Caco-2 cells,[5],least cytotoxicity; also recorded: very little
CS(=O)(=O)c1ccc(Oc2cc(F)cc(C#N)c2)c2c1[C@H](O)C(F)(F)C2 [PT-2385],toxicity against IECs (cell viability),[1]; 48 h,little toxicity
"CC1=C(/C=C/C(C)=C/C=C/C(C)=C/C(=O)Nc2ccc(O)cc2)C(C)(C)CCC1 [4-HPR, N-(4-hydroxyphenyl)retinamide]",IEC-selective dose-dependent cytotoxicity,[1],identified
CCc1c2c(nc3ccc(O)cc13)-c1cc3c(c(=O)n1C2)COC(=O)[C@]3(O)CC [SN-38],cytotoxic effect (cell viability),[2],confirmed
same,cytotoxic effect (cell viability),[6],confirmed
C[S+]([O-])c1ccc(-c2nc(-c3ccncc3)c(-c3ccc(F)cc3)[nH]2)cc1 (stereo not drawn) [SB203580],effect of kinase inhibitor on dose-dependent cytotoxicity induced by YC-1,[1],almost no effect
CCCCCCCC/C=C\CCCCCCCC(=O)NCCc1ccc(O)c(O)c1 [N-oleoyldopamine],IEC-selective dose-dependent cytotoxicity,[2],identified
COC(=O)Nc1c(N)nc(-c2nn(Cc3ccccc3F)c3ncc(F)cc23)nc1N [vericiguat],toxicity against IECs (cell viability),[1]; 48 h,little toxicity
COc1cccc(-c2cc(=O)c3ccccc3o2)c1N [PD98059],inhibition of cytotoxicity of 1 µM YC-1,"[1]; 0-30 µM PD98059 with 1 µM YC-1, 48 h, Fig. 6D",in a dose-dependent manner
same,inhibition of cytotoxicity caused by 4-HPR,"[1]; 10 µM PD98059 with 0-30 µM 4-HPR, 48 h, Fig. 6F",failed to inhibit
same,inhibition of cytotoxicity caused by ABT-737,"[1]; 10 µM PD98059 with 0-30 µM ABT-737, 48 h, Fig. 6E",failed to inhibit
same,inhibition of cytotoxicity caused by N-oleoyldopamine,"[1]; 10 µM PD98059 with 0-30 µM N-oleoyldopamine, 48 h, Fig. 6H",failed to inhibit
same,inhibition of cytotoxicity caused by ivermectin,"[1]; 10 µM PD98059 with 0-30 µM ivermectin, 48 h, Fig. 6G",failed to inhibit
same,inhibition of YC-1-induced cytotoxicity in IECs from hiPSOs expanded with Matrigel,"[1]; 10 µM PD98059 with 1 µM YC-1, 48 h, Figure S5",inhibited
same,effect of kinase inhibitor on dose-dependent cytotoxicity induced by YC-1,[1],substantially prevented
COC(=O)c1ccc(O)c(NC(=O)COc2ccc(C34CC5CC(CC(C5)C3)C4)cc2)c1 [LW6],toxicity against IECs (cell viability),[1]; 48 h,little toxicity
CN(C)CC[C@H](CSc1ccccc1)Nc1ccc(S(=O)(=O)NC(=O)c2ccc(N3CCN(Cc4ccccc4-c4ccc(Cl)cc4)CC3)cc2)cc1[N+](=O)[O-] [ABT-737],IEC-selective dose-dependent cytotoxicity,[1],identified

# Reference: publication PMC10070462, “Drug cytotoxicity screening using human intestinal organoids propagated with extensive cost-reduction strategies” (Scientific Reports, 2023)
